Data on two compounds can be found in US20050197385A1, “Use of rotigotine for treatment or prevention of dopaminergic neuron loss” (Schwarz Pharma AG, priority 2004, published 2005).

In one series the test system is Parkinson models. The following applies: in vivo; cited from earlier work.
For series [1], the system named is MPTP-treated (macaque) monkeys. As to the kind of experiment: Progressive MPTP primate model (pilot study). Format: in vivo. On the procedure: In the model used, which reflects the progressive course of the Parkinson's disease on primates, subliminal toxic doses of MPTP were injected in (macaque) monkeys for several days. The Parkinson symptoms developed in the model in a period of about 2 weeks. As soon as a certain degree of damage was reached, Rotigotine was injected daily in a formulation that built up a continuous plasma level for 24 h. The MPTP injections were stopped as soon as the motor activity was reduced by a certain degree (approx. 5 days later). The behavior of the animals was assessed on a daily basis.
At the end of the Rotigotine injection or washout phase, a group each of animals was killed and the condition of the basal ganglion was examined histologically and biochemically.

For series [2], the system named is dopamine transporter (DAT) in striatum. The experiment in a line: Subacute MPTP model, [125I]PE2I dopamine transporter binding in striatum sections. The format is in vivo. The following applies: mouse.
Description: Groups 1-7 were treated in the following manner: Group 1: Untreated control; Group 2: Control group treated with the excipient solution for Rotigotine and MPTP; Group 3: MPTP treatment; Group 4: MPTP treatment plus Rotigotine 0.3 mg/kg; Group 5: MPTP treatment plus Rotigotine 1.0 mg/kg; Group 6: MPTP treatment plus Rotigotine 3.0 mg/kg; Group 7: Treatment only with Rotigotine (3.0 mg/kg)
For intoxication, mice are administered 80 mg/kg of the neurotoxin 1-methyl-4-phenyl-1,2,3,6-tetrahydro-pyridine (MPTP) (in portions of 20 mg/kg at two-hour intervals, Group 3-6 in FIGS. 1 and 2), leading to a degeneration of the neurons of the substantia nigra of about 50-60% (maximum degeneration in Group 3 in FIGS. 1 and 2). Rotigotine is administered daily in doses of 0.3, 1, or 3 mg/kg each for 7 days in the so-called ‘Slow-Release-Formulation’ (see Working Example 2) (Group 4-6 in FIGS. 1 and 2). A group of MPTP treated animals (Group 3) is given Rotigotine excipient solution (see Working Example 2 without Rotigotine HCl) and serves as reference. […] PE2I ([^125I]-(E)-N(3-iodoprop-2-enyl)-2β-carboxymethyl-3β-(4′-methylphenyl)-nortropane) in phosphate buffer, pH 7.4, in order to mark the quantity of the still present dopamin transporter in striatum and thereby to indicate the quantity of functioning nerve ends.
Another series relates to Parkinson patients. The following applies: cited from earlier work.
Series [3] concerns neurons of the substantia nigra. The experiment in a line: Acute MPTP model (including apoptosis), FluoroJade stain of degenerating neurons. Format: in vivo. To be noted: mouse; for Number of degenerating neurons: FluoroJade stain. Here is the method:
About 16 hours before, Rotigotine is administered in doses of 0.3, 1 or 3 mg/kg each as the so-called ‘Slow-Release-Formulation’. […] After 24 hours the animals are killed and the brains fixed. The brain sections are stained with FluoroJade for identification of degenerated cells. The immunohistochemical marking of tyrosine-hydroxylase served the purpose of identification of dopaminergic neurons.

For the compound `CCCN(CCc1cccs1)[C@@H]1CCc2c(O)cccc2C1` [(R)-enantiomer], the “Activity in Parkinson models” value in the series on Parkinson models was “inactive”.

As to `CCCN(CCc1cccs1)C1CCc2c(O)cccc2C1` (single isomer, unassigned; (-)) [Rotigotine, (−)-5,6,7,8-Tetrahydro-6-[propyl[2-(2-thienyl)ethyl]amino]-1-naphthol], in series [1] (basal ganglion, after the treatment and the washout phase), the Content of pre-pro-enkephalin entry is listed as “tendency toward normalization”. For the same compound, the “Motor activity of the animals” value in series [1] (daily Rotigotine injection, during the treatment and in the following washout phase) is listed as “clearly improved”. Besides, in series [1] (end of Rotigotine injection or washout phase, compared to untreated animals), the “Density of the nerve endings in the striatum” value is “significantly increased”. The “Survival of the neurons and their nerve ends (dopamine transporter quantity in striatum)” value in series [2] (MPTP 80 mg/kg, Rotigotine 0.3, 1 or 3 mg/kg daily for 7 days, Slow-Release-Formulation) was “improves the survival of the neurons and their nerve ends in dependence of the dosage”. In series [2] (subacute phase after MPTP), the “Dopaminergic innervation of the striatum (dopamine transporter density)” value is “almost completely preserved or restored”. In the series with Parkinson patients (patients with prominent dyskinesias, Metman et al 2001), the “Dyskinesias (Parkinson-associated motor function disorders)” value is reported as “improved”. Besides, the “UPDRS (Unified Parkinson's Disease Rating Scale) score” value in the series with Parkinson patients (transdermal administration to Parkinson patients, WO 02/089777) is recorded as “improvement”. The “Number of degenerating neurons” value in series [3] (MPTP excipient + Rotigotine 3.0 mg/kg (Rotigotine alone)) is reported as 3.8; in series [3] (MPTP intoxication + Rotigotine 0.3 mg/kg) it was 66.7; in series [3] (MPTP intoxication + Rotigotine 1.0 mg/kg), 76.8; in series [3] (MPTP intoxication + Rotigotine 3.0 mg/kg) it was 34.9. For the same compound, the “Staining of tyrosine hydroxylase, treated versus untreated animals” value in series [3] (acute MPTP model, 24 hours after MPTP, immunohistochemistry) is listed as “does not show any difference”. Besides, the “Decrease in the number of degenerated neurons after application of Rotigotine” value in series [3] (acute MPTP model, FluoroJade, versus MPTP alone) is reported as “about 50%”. The “Number of degenerating neurons in the mesencephalon” value in series [3] (acute phase after MPTP) is “reduced”.
